Test: Eclipse PK and dosimetry sub-study, 27 patients, cycle 1 biodistribution and dosimetry (SPECT/CT, OLINDA 2.2.3)
Type: in vivo, human
Details: for Absorbed Dose Mean (SD): ECLIPSE, after Cycle 1
From the text: Data Acquisition: All participating sites underwent a rigorous site setup process during which all dose calibrators, scanners, and gamma counters used in the sub-study were calibrated. Sites were allowed to enroll patients in the sub-study only after the completion and approval of all site setup processes by Invicro.
Patients underwent SPECT/CT imaging, with anatomical coverage typically extending from the salivary glands to the pelvis, following the administration of a targeted 7.4±10% GBq of ^177Lu-PSMA-I&T at cycle 1. SPECT/CT imaging was performed at four timepoints: 4 h, 24 h, 48 h, and 168 h post-injection. Additionally, a subset of patients imaged at Cycle 1 (16 out of 27), were also imaged at Cycle 3 (Table 7 in Appendix 1).
Image acquisition and reconstruction protocols were standardized across all imaging timepoints and patients at each site. Furthermore, each site consistently utilized the same SPECT/CT scanner throughout the duration of the study to ensure uniformity.
In general, raw projection data was acquired into a 128×128 matrix with medium energy general purpose (MEGP) collimation using a step and shoot acquisition mode, acquiring 60 projections per detector (180 degrees rotation per detector), 20 seconds per projection, with an acquisition zoom of 1.0, and a 20% (±10%) energy window centered over 208 keV.
A low-dose CT scan was performed prior to beginning the SPECT scan for attenuation correction. Sites were instructed to use the Institutional standard parameters for acquisition of the low-dose CT. Institutional standard reconstruction parameters were used. Scatter correction was required to be applied using a 20% (±10%) scatter window centered over 170 keV.
The imaging data was analysed using Invicro's VivoQuant software, a validated software used in a 21 CFR § 11-compliant workflow. The general quantification approach was based on the principles detailed in the Medical Internal Radiation Dose (MIRD) Pamphlet No. 16,^1 No 23,2 and No 26,3 as appropriate.
SPECT images were calibrated in units of Becquerel (Bq) using a calibration factor derived from a source of known activity, measured during site set up with the same acquisition and reconstruction parameters employed for patient imaging. A patient-specific calibration factor was also derived at each clinical time point after acquisition of the patient SPECT/CT. As a quality control measure, if the patient-specific calibration factor differed by more than 10% from the site set up calibration factor, an investigation was conducted.
Volume of interest (VOI) (kidneys, bladder, liver, lumbar vertebrae L2-L4, lacrimal glands, salivary glands [parotid and submandibular glands], and whole body) were delineated on each dataset by a trained image analyst. […] Organs were segmented either by drawing the entire contour of the organ, or by placing a sphere in a representative region of the organ and then multiplying by the organ's effective mass (based on patient's height and weight).^4 Segmentation methods for each organ are specified in Table 1 and were consistently applied to each patient.
Clearance of the radiopharmaceutical was derived from a data-appropriate fit of each organ's TAC. Depending on the TAC's shape, the data was fitted with the sum of one, two, or three exponentials, or using a rise and fall model. Fitting was performed with in-house Python software. TIACs were calculated through analytical integration of the curve fit extrapolated to infinity. […] A whole-body TAC was derived from delineating the imaged body. The remainder activity was determined by subtracting the cumulative organ TIACs from the whole body TIAC.
Organ TIACs were input into OLINDA 2.2.3 for the computation of organ and whole-body absorbed doses, using International Commission on Radiological Protection (ICRP)-103 weighing factors. The ICRP-89 derived male phantom was used for dose estimation. […]

## O=C([O-])CC[C@H](NC(=O)N[C@@H](CCCCNC(=O)CCCCCCC(=O)NCCCC[C@@H](NC(=O)[C@@H](Cc1ccccc1)NC(=O)[C@@H](Cc1ccc(O)c(I)c1)NC(=O)CC[C@H](C(=O)[O-])N1CCN(CC(=O)[O-])CCN(CC(=O)[O-])CCN(CC(=O)[O-])CC1)C(=O)[O-])C(=O)[O-])C(=O)[O-].[177Lu+3].[H+].[H+].[H+].[H+].[H+] [^177Lu-PSMA I&T, (3S,7S,26R,29R,32R,37R)-29-benzyl-32-(4-hydroxy-3-iodobenzyl)-5,13,20,28,31,34-hexaoxo-37-(4,7,10-tris(carboxymethyl)-1,4,7,10-tetraazacyclododecan-1-yl)-4,6,12,21,27,30,33-heptaazaheptatriacontane-1,3,7,26,37-pentacarboxylic acid; lutetium-177 (III)]
Bladder
  Absorbed Dose Mean (SD): 0.41 (0.05) Gy/GBq
Bone Marrow
  Absorbed Dose Mean (SD): 0.08 (0.12) Gy/GBq
Cycle 1, n = 26
  Absorbed Dose, Adrenals, Mean: 0.02 Gy/GBq
  Absorbed Dose, Adrenals, max: 0.08 Gy/GBq
  Absorbed Dose, Adrenals, median: 0.02 Gy/GBq
  Absorbed Dose, Adrenals, min: 0.01 Gy/GBq
  Absorbed Dose, Brain, Mean: 0.01 Gy/GBq
  Absorbed Dose, Brain, max: 0.07 Gy/GBq
  Absorbed Dose, Brain, median: 0.01 Gy/GBq
  Absorbed Dose, Brain, min: 0.00 Gy/GBq
  Absorbed Dose, Esophagus, Mean: 0.02 Gy/GBq
  Absorbed Dose, Esophagus, max: 0.07 Gy/GBq
  Absorbed Dose, Esophagus, median: 0.01 Gy/GBq
  Absorbed Dose, Esophagus, min: 0.00 Gy/GBq
  Absorbed Dose, Eyes, Mean: 0.01 Gy/GBq
  Absorbed Dose, Eyes, max: 0.07 Gy/GBq
  Absorbed Dose, Eyes, median: 0.01 Gy/GBq
  Absorbed Dose, Eyes, min: 0.00 Gy/GBq
  Absorbed Dose, Gallbladder wall, Mean: 0.02 Gy/GBq
  Absorbed Dose, Gallbladder wall, max: 0.07 Gy/GBq
  Absorbed Dose, Gallbladder wall, median: 0.01 Gy/GBq
  Absorbed Dose, Gallbladder wall, min: 0.00 Gy/GBq
  Absorbed Dose, Heart wall, Mean: 0.02 Gy/GBq
  Absorbed Dose, Heart wall, max: 0.07 Gy/GBq
  Absorbed Dose, Heart wall, median: 0.01 Gy/GBq
  Absorbed Dose, Heart wall, min: 0.00 Gy/GBq
  Absorbed Dose, Kidneys, Mean: 0.41 Gy/GBq
  Absorbed Dose, Kidneys, max: 0.81 Gy/GBq
  Absorbed Dose, Kidneys, median: 0.37 Gy/GBq
  Absorbed Dose, Kidneys, min: 0.17 Gy/GBq
  Absorbed Dose, Lacrimal Glands, Mean: 0.40 Gy/GBq
  Absorbed Dose, Lacrimal Glands, max: 1.19 Gy/GBq
  Absorbed Dose, Lacrimal Glands, median: 0.26 Gy/GBq
  Absorbed Dose, Lacrimal Glands, min: 0.04 Gy/GBq
  Absorbed Dose, Left colon, Mean: 0.47 Gy/GBq
  Absorbed Dose, Left colon, max: 1.53 Gy/GBq
  Absorbed Dose, Left colon, median: 0.41 Gy/GBq
  Absorbed Dose, Left colon, min: 0.01 Gy/GBq
  Absorbed Dose, Liver, Mean: 0.04 Gy/GBq
  Absorbed Dose, Liver, max: 0.10 Gy/GBq
  Absorbed Dose, Liver, median: 0.03 Gy/GBq
  Absorbed Dose, Liver, min: 0.01 Gy/GBq
  Absorbed Dose, Lungs, Mean: 0.01 Gy/GBq
  Absorbed Dose, Lungs, max: 0.07 Gy/GBq
  Absorbed Dose, Lungs, median: 0.01 Gy/GBq
  Absorbed Dose, Lungs, min: 0.00 Gy/GBq
  Absorbed Dose, Osteogenic cells, Mean: 0.05 Gy/GBq
  Absorbed Dose, Osteogenic cells, max: 0.29 Gy/GBq
  Absorbed Dose, Osteogenic cells, median: 0.02 Gy/GBq
  Absorbed Dose, Osteogenic cells, min: 0.00 Gy/GBq
  Absorbed Dose, Pancreas, Mean: 0.02 Gy/GBq
  Absorbed Dose, Pancreas, max: 0.07 Gy/GBq
  Absorbed Dose, Pancreas, median: 0.01 Gy/GBq
  Absorbed Dose, Pancreas, min: 0.00 Gy/GBq
  Absorbed Dose, Prostate, Mean: 0.02 Gy/GBq
  Absorbed Dose, Prostate, max: 0.07 Gy/GBq
  Absorbed Dose, Prostate, median: 0.01 Gy/GBq
  Absorbed Dose, Prostate, min: 0.01 Gy/GBq
  Absorbed Dose, Rectum, Mean: 0.44 Gy/GBq
  Absorbed Dose, Rectum, max: 1.46 Gy/GBq
  Absorbed Dose, Rectum, median: 0.39 Gy/GBq
  Absorbed Dose, Rectum, min: 0.01 Gy/GBq
  Absorbed Dose, Red Marrow, Mean: 0.08 Gy/GBq
